From the NIST ThermoML archive (doi:10.1021/je201289w)
± gives the expanded uncertainty stated by the source.

Key:
[1] = refractive index (Na D-line) (dimensionless); settings: 101.33 kPa, Liquid, Standard Abbe refractometry
[2] = 101.33 kPa, Liquid, Vibrating tube method

SMILES: CCn1cc[n+](C)c1.O=S(=O)([O-])O [1-ethyl-3-methylimidazolium hydrogen sulfate]
- refractive index ([1]; 283.15 K): 1.50042 ± 0.00061
- refractive index ([1]; 288.15 K): 1.49931 ± 0.00061
- refractive index ([1]; 293.15 K): 1.4982 ± 0.00061
- refractive index ([1]; 298.15 K): 1.4971 ± 0.00061
- refractive index ([1]; 303.15 K): 1.49601 ± 0.00061
- refractive index ([1]; 308.15 K): 1.49489 ± 0.00061
- refractive index ([1]; 313.15 K): 1.49379 ± 0.00061
- refractive index ([1]; 318.15 K): 1.49269 ± 0.00061
- refractive index ([1]; 323.15 K): 1.49161 ± 0.00061
- refractive index ([1]; 328.15 K): 1.49052 ± 0.00061
- refractive index ([1]; 333.15 K): 1.48944 ± 0.00061
- refractive index ([1]; 338.15 K): 1.48836 ± 0.00061
- refractive index ([1]; 343.15 K): 1.48727 ± 0.0006
- refractive index ([1]; 348.15 K): 1.48623 ± 0.00061
- refractive index ([1]; 353.15 K): 1.48512 ± 0.00061
- mass density ([2]; 283.15 K): 1376.7 ± 2.2 kg/m3
- mass density ([2]; 288.15 K): 1373.6 ± 2.2 kg/m3
- mass density ([2]; 293.15 K): 1370.5 ± 2.2 kg/m3
- mass density ([2]; 298.15 K): 1367.4 ± 2.2 kg/m3
- mass density ([2]; 303.15 K): 1364.3 ± 2.2 kg/m3
- mass density ([2]; 308.15 K): 1361.1 ± 2.2 kg/m3
- mass density ([2]; 313.15 K): 1357.8 ± 2.1 kg/m3
- mass density ([2]; 318.15 K): 1354.6 ± 2.1 kg/m3
- mass density ([2]; 323.15 K): 1351.5 ± 2.1 kg/m3
- mass density ([2]; 328.15 K): 1348.5 ± 2.1 kg/m3
- mass density ([2]; 333.15 K): 1345.4 ± 2.1 kg/m3
- mass density ([2]; 338.15 K): 1342.4 ± 2.1 kg/m3
- mass density ([2]; 343.15 K): 1339.4 ± 2.1 kg/m3
- mass density ([2]; 348.15 K): 1336.4 ± 2.1 kg/m3
- mass density ([2]; 353.15 K): 1333.4 ± 2.1 kg/m3

SMILES: CCn1cc[n+](C)c1.CS(=O)(=O)[O-] [1-ethyl-3-methylimidazolium methanesulfonate]
- refractive index ([1]; 283.15 K): 1.49994 ± 0.00063
- refractive index ([1]; 288.15 K): 1.49855 ± 0.00063
- refractive index ([1]; 293.15 K): 1.49718 ± 0.00063
- refractive index ([1]; 298.15 K): 1.49582 ± 0.00063
- refractive index ([1]; 303.15 K): 1.49444 ± 0.00063
- refractive index ([1]; 308.15 K): 1.49308 ± 0.00063
- refractive index ([1]; 313.15 K): 1.49172 ± 0.00063
- refractive index ([1]; 318.15 K): 1.49039 ± 0.00063
- refractive index ([1]; 323.15 K): 1.48905 ± 0.00063
- refractive index ([1]; 328.15 K): 1.48768 ± 0.00063
- refractive index ([1]; 333.15 K): 1.48638 ± 0.00063
- refractive index ([1]; 338.15 K): 1.48498 ± 0.00063
- refractive index ([1]; 343.15 K): 1.48367 ± 0.00063
- refractive index ([1]; 348.15 K): 1.4823 ± 0.00063
- refractive index ([1]; 353.15 K): 1.48095 ± 0.00063
- mass density ([2]; 283.15 K): 1252 ± 1.8 kg/m3
- mass density ([2]; 288.15 K): 1248.4 ± 1.8 kg/m3
- mass density ([2]; 293.15 K): 1245 ± 1.8 kg/m3
- mass density ([2]; 298.15 K): 1241.6 ± 1.8 kg/m3
- mass density ([2]; 303.15 K): 1238.2 ± 1.8 kg/m3
- mass density ([2]; 308.15 K): 1234.9 ± 1.8 kg/m3
- mass density ([2]; 313.15 K): 1231.5 ± 1.7 kg/m3
- mass density ([2]; 318.15 K): 1228.2 ± 1.7 kg/m3
- mass density ([2]; 323.15 K): 1224.8 ± 1.7 kg/m3
- mass density ([2]; 328.15 K): 1221.5 ± 1.7 kg/m3
- mass density ([2]; 333.15 K): 1218.1 ± 1.7 kg/m3
- mass density ([2]; 338.15 K): 1214.8 ± 1.7 kg/m3
- mass density ([2]; 343.15 K): 1211.5 ± 1.7 kg/m3
- mass density ([2]; 348.15 K): 1208.1 ± 1.7 kg/m3
- mass density ([2]; 353.15 K): 1204.8 ± 1.7 kg/m3

SMILES: CCn1cc[n+](C)c1.N#C[B-](C#N)(C#N)C#N [1-ethyl-3-methylimidazolium tetracyanoborate]
- refractive index ([1]; 283.15 K): 1.45284 ± 0.00067
- refractive index ([1]; 288.15 K): 1.45108 ± 0.00066
- refractive index ([1]; 293.15 K): 1.44936 ± 0.00066
- refractive index ([1]; 298.15 K): 1.44763 ± 0.00066
- refractive index ([1]; 303.15 K): 1.44592 ± 0.00066
- refractive index ([1]; 308.15 K): 1.44421 ± 0.00066
- refractive index ([1]; 313.15 K): 1.44252 ± 0.00066
- refractive index ([1]; 318.15 K): 1.44081 ± 0.00066
- refractive index ([1]; 323.15 K): 1.43913 ± 0.00066
- refractive index ([1]; 328.15 K): 1.43745 ± 0.00066
- refractive index ([1]; 333.15 K): 1.43578 ± 0.00066
- refractive index ([1]; 338.15 K): 1.43412 ± 0.00065
- refractive index ([1]; 343.15 K): 1.43248 ± 0.00065
- refractive index ([1]; 348.15 K): 1.43085 ± 0.00065
- refractive index ([1]; 353.15 K): 1.42922 ± 0.00065
- mass density ([2]; 283.15 K): 1041 ± 1.2 kg/m3
- mass density ([2]; 288.15 K): 1037 ± 1.2 kg/m3
- mass density ([2]; 293.15 K): 1032.9 ± 1.2 kg/m3
- mass density ([2]; 298.15 K): 1028.9 ± 1.2 kg/m3
- mass density ([2]; 303.15 K): 1024.9 ± 1.1 kg/m3
- mass density ([2]; 308.15 K): 1020.9 ± 1.1 kg/m3
- mass density ([2]; 313.15 K): 1016.9 ± 1.1 kg/m3
- mass density ([2]; 318.15 K): 1013 ± 1.1 kg/m3
- mass density ([2]; 323.15 K): 1009.1 ± 1.1 kg/m3
- mass density ([2]; 328.15 K): 1005.2 ± 1.1 kg/m3
- mass density ([2]; 333.15 K): 1001.3 ± 1.1 kg/m3
- mass density ([2]; 338.15 K): 997.4 ± 1.1 kg/m3
- mass density ([2]; 343.15 K): 993.6 ± 1.1 kg/m3
- mass density ([2]; 348.15 K): 989.8 ± 1.1 kg/m3
- mass density ([2]; 353.15 K): 986 ± 1.1 kg/m3

SMILES: CCn1cc[n+](C)c1.F[B-](F)(F)F [1-ethyl-3-methylimidazolium tetrafluoroborate]
- refractive index ([1]; 283.15 K): 1.41546 ± 0.00062
- refractive index ([1]; 288.15 K): 1.41423 ± 0.00062
- refractive index ([1]; 293.15 K): 1.413 ± 0.00062
- refractive index ([1]; 298.15 K): 1.41177 ± 0.00062
- refractive index ([1]; 303.15 K): 1.41055 ± 0.00062
- refractive index ([1]; 308.15 K): 1.40934 ± 0.00062
- refractive index ([1]; 313.15 K): 1.4081 ± 0.00062
- refractive index ([1]; 318.15 K): 1.4069 ± 0.00061
- refractive index ([1]; 323.15 K): 1.4057 ± 0.00061
- refractive index ([1]; 328.15 K): 1.40452 ± 0.00062
- refractive index ([1]; 333.15 K): 1.40327 ± 0.00061
- refractive index ([1]; 338.15 K): 1.40211 ± 0.00061
- refractive index ([1]; 343.15 K): 1.40093 ± 0.00061
- refractive index ([1]; 348.15 K): 1.39975 ± 0.00061
- refractive index ([1]; 353.15 K): 1.39858 ± 0.00061
- mass density ([2]; 283.15 K): 1292 ± 1.9 kg/m3
- mass density ([2]; 288.15 K): 1288.2 ± 1.9 kg/m3
- mass density ([2]; 293.15 K): 1284.3 ± 1.9 kg/m3
- mass density ([2]; 298.15 K): 1280.5 ± 1.9 kg/m3
- mass density ([2]; 303.15 K): 1276.7 ± 1.9 kg/m3
- mass density ([2]; 308.15 K): 1272.9 ± 1.9 kg/m3
- mass density ([2]; 313.15 K): 1269.1 ± 1.9 kg/m3
- mass density ([2]; 318.15 K): 1265.3 ± 1.8 kg/m3
- mass density ([2]; 323.15 K): 1261.6 ± 1.8 kg/m3
- mass density ([2]; 328.15 K): 1257.8 ± 1.8 kg/m3
- mass density ([2]; 333.15 K): 1254 ± 1.8 kg/m3
- mass density ([2]; 338.15 K): 1250.2 ± 1.8 kg/m3
- mass density ([2]; 343.15 K): 1246.5 ± 1.8 kg/m3
- mass density ([2]; 348.15 K): 1242.8 ± 1.8 kg/m3
- mass density ([2]; 353.15 K): 1239.2 ± 1.8 kg/m3

SMILES: CCn1cc[n+](C)c1.N#C[S-] [1-ethyl-3-methylimidazolium thiocyanate]
- refractive index ([1]; 283.15 K): 1.556 ± 0.00064
- refractive index ([1]; 288.15 K): 1.5545 ± 0.00064
- refractive index ([1]; 293.15 K): 1.55299 ± 0.00064
- refractive index ([1]; 298.15 K): 1.55149 ± 0.00064
- refractive index ([1]; 303.15 K): 1.54999 ± 0.00064
- refractive index ([1]; 308.15 K): 1.5485 ± 0.00064
- refractive index ([1]; 313.15 K): 1.54702 ± 0.00064
- refractive index ([1]; 318.15 K): 1.54557 ± 0.00064
- refractive index ([1]; 323.15 K): 1.54409 ± 0.00064
- refractive index ([1]; 328.15 K): 1.54263 ± 0.00064
- refractive index ([1]; 333.15 K): 1.54119 ± 0.00064
- refractive index ([1]; 338.15 K): 1.53973 ± 0.00063
- refractive index ([1]; 343.15 K): 1.53831 ± 0.00063
- refractive index ([1]; 348.15 K): 1.53687 ± 0.00063
- refractive index ([1]; 353.15 K): 1.53545 ± 0.00063
- mass density ([2]; 283.15 K): 1124.7 ± 1.4 kg/m3
- mass density ([2]; 288.15 K): 1121.7 ± 1.4 kg/m3
- mass density ([2]; 293.15 K): 1118.6 ± 1.4 kg/m3
- mass density ([2]; 298.15 K): 1115.5 ± 1.4 kg/m3
- mass density ([2]; 303.15 K): 1112.4 ± 1.4 kg/m3
- mass density ([2]; 308.15 K): 1109.4 ± 1.4 kg/m3
- mass density ([2]; 313.15 K): 1106.3 ± 1.4 kg/m3
- mass density ([2]; 318.15 K): 1103.3 ± 1.4 kg/m3
- mass density ([2]; 323.15 K): 1100.3 ± 1.4 kg/m3
- mass density ([2]; 328.15 K): 1097.3 ± 1.3 kg/m3
- mass density ([2]; 333.15 K): 1094.4 ± 1.3 kg/m3
- mass density ([2]; 338.15 K): 1091.4 ± 1.3 kg/m3
- mass density ([2]; 343.15 K): 1088.4 ± 1.3 kg/m3
- mass density ([2]; 348.15 K): 1085.5 ± 1.3 kg/m3
- mass density ([2]; 353.15 K): 1082.6 ± 1.3 kg/m3
